Source: US20250032477A1, “COMPOUNDS, PHARMACEUTICAL COMPOSITIONS, AND METHODS FOR THE TREATMENT, PREVENTION, OR MANAGEMENT OF HYPERPROLIFERATIVE DISORDERS” (VINCERX PHARMA GMBH, priority 2021, published 2025)
Structures can show the parent of a compound that is named as a salt. Where two headings read alike, the source gives them in different places.

Legend:
786-O [1] = experiment: Cytotoxicity in vitro in the presence and absence of elastase (MTT); assay type: cell-based, human
Experimental: (§1) Cultivation of cells was performed according to standard procedures with the media recommended by the provider. The cells, in a total volume of 100 μL, were seeded in a 96-well plate with a white bottom (#3610). After a 24 h incubation period at 37° C. and […], the medium was exchanged by adding 90 μL fresh medium. The treatment started by adding the test compound in 10 μL of culture medium to the cells in triplicates. Concentrations ranging from 10^−5 M to 10^−13 M were chosen. Two identically treated sets of samples were prepared. One set was treated with the test compound alone, whereas to the second set the compound and 10 nM elastase was added followed by a 72 h incubation period at 37° C. and 5% CO2. The proliferation was detected using the MTT assay (ATCC). At the end of the incubation period the MTT reagent was added to all samples for 4 h. Lysis of the cells followed by addition of the detergent was done overnight. The formed dye was detected at 570 nm. The proliferation of untreated but otherwise identically handled cells was define as the […].

HT29 [2] = experiment: as above; assay type: cell-based, human
Experimental: as §1

NCI H292 [3] = experiment: as above; assay type: cell-based, human
Experimental: as §1

SUM149 [4] = experiment: as above; assay type: cell-based
Experimental: as §1

in vitro = conditions: human, Caco-2
Experimental: Caco-2: The cell permeability of a substance can be investigated by means of in vitro testing in a flux assay using Caco-2 cells [M. D. Troutman and D. R. Thakker, Pharm. Res. 20 (8), 1210-1224 (2003)]. For this purpose, the cells were cultured for 15-16 days on 24-well filter plates. For the determination of permeation, the respective test substance was applied in a HEPES buffer to the cells either apically (A) or basally (B) and incubated for 2 hours. After 0 hours and after 2 hours, samples were taken from the cis and trans compartments. The samples were separated by HPLC (Agilent 1200, Böblingen, Germany) using reverse phase columns. The HPLC system was coupled via a Turbo Ion Spray Interface to a Triple Quadropol mass spectrometer API 4000 (AB SCIEX Deutschland GmbH, Darmstadt, Germany). The permeability was evaluated on the basis of a Papp value, which was calculated using the formula published by Schwab et al. [D. Schwab et al., J. Med. Chem. 46, 1716-1725 (2003)]. A substance was classified as actively transported when the ratio of Papp (B-A) to Papp (A-B) (efflux ratio) was >2 or <0.5. Compounds with an efflux ratio of 0.5-2 are considered not actively transported. In Table 5, reference compounds are provided for comparison. Ref 1 is exatecan mesylate, Ref 2 is DXd, and Ref 3 is 10,11-methylenedioxy-camptothecin (FL118).

786-O [5] = experiment: Cytotoxicity assay (Version 2), automated, AC50, with or without elastase; assay type: cell-based, human
Experimental: as §1
(§2) The Cytotoxicity assay (Version 2) was performed as above described. Some changes were applied as the assays were performed in an automated fashion and the IC50 values determination was changed. Here the change in metabolic activity of the cells, in percent, was calculated by normalization of the measured values to the absorbance values of medium containing wells without cells (=−100%) and the absorbance of the DMSO-treated cells (=0%). AC50 values (activity concentration at −50%) were determined by means of a 4 parameter Hill-fit using GeneData Screener software.

HT29 [6] = experiment: as above; assay type: cell-based, human
Experimental: as §1, §2

NCI H292 [7] = experiment: as above; assay type: cell-based, human
Experimental: as §1, §2

SUM149 [8] = experiment: as above; assay type: cell-based
Experimental: as §1, §2

[9] = SUM149 cells, with 10 nM elastase, 72 h, MTT, read-out: SUM149 IC50 w elastase
[10] = SUM149 cells, without elastase, 72 h, MTT, read-out: SUM149 IC50 w/o
[11] = 786-O cells, Version 2, with elastase, activity concentration at −50%, read-out: 786-O AC50 +elastase
[12] = 786-O cells, Version 2, without elastase, activity concentration at −50%, read-out: 786-O AC50 −elastase
[13] = HT29 cells, Version 2, with elastase, activity concentration at −50%, read-out: HT29 AC50 +elastase
[14] = HT29 cells, Version 2, without elastase, activity concentration at −50%, read-out: HT29 AC50 −elastase
[15] = NCI H292 cells, Version 2, with elastase, activity concentration at −50%, read-out: NCI H292 AC50 +elastase
[16] = NCI H292 cells, Version 2, without elastase, activity concentration at −50%, read-out: NCI H292 AC50 −elastase
[17] = SUM149 cells, Version 2, with elastase, activity concentration at −50%, read-out: SUM149 AC50 +elastase
[18] = SUM149 cells, Version 2, without elastase, activity concentration at −50%, read-out: SUM149 AC50 −elastase

## CC[C@@]1(O)C(=O)OCc2c1cc1n(c2=O)Cc2c-1nc1cc(F)c(C)c3c1c2[C@@H](NC(=O)Cc1ccncc1)CC3 [Compound 9, N-[(1S,9S)-9-ethyl-5-fluoro-9-hydroxy-4-methyl-10,13-dioxo-2,3,9,10,13,15-hexahydro-1H,12H-benzo[de]pyrano[3′,4′:6,7]indolizino[1,2-b]quinolin-1-yl]-2-(pyridin-4-yl)acetamide]
786-O [1]; Homo sapiens, 786-0, 786-O cells, with 10 nM elastase, 72 h, MTT, read-out: 786-O IC50 w elastase
  IC50: 0.1 to 1 nM
786-O [1]; Homo sapiens, 786-0, 786-O cells, without elastase, 72 h, MTT, read-out: 786-O IC50 w/o
  IC50: 0.1 to 1 nM
HT29 [2]; Homo sapiens, HT-29, HT29 cells, with 10 nM elastase, 72 h, MTT, read-out: HT29 IC50 w elastase
  IC50: 0.1 to 1 nM
HT29 [2]; Homo sapiens, HT-29, HT29 cells, without elastase, 72 h, MTT, read-out: HT29 IC50 w/o
  IC50: 1.1 to 10 nM
NCI H292 [3]; Homo sapiens, NCI H292 cells, with 10 nM elastase, 72 h, MTT, read-out: NCI H292 IC 50 w elastase
  IC50: 0.1 to 1 nM
NCI H292 [3]; Homo sapiens, NCI H292 cells, without elastase, 72 h, MTT, read-out: NCI H292 IC 50 w/o
  IC50: 0.1 to 1 nM
SUM149 [4]; [9]
  IC50: 0.01 to 0.1 nM
SUM149 [4]; [10]
  IC50: 0.01 to 0.1 nM
In vitro
  Papp A→B at 2 h: 0.1 to 0.9 ×10⁻⁶ cm/s
  efflux ratio at 2 h: > 2

## CCCNC(=O)Nc1cccc(S(=O)(=O)Nc2cccc([C@@H](CC(=O)O)NC(=O)Nc3ccc(NC(=O)NCCOCCOCCOCCC(=O)N[C@@H](CC(=O)O)C(=O)N4CCC[C@H]4C(=O)N[C@H](C(=O)O[C@]4(CC)C(=O)OCc5c4cc4n(c5=O)Cc5c-4nc4cc(F)c(C)c6c4c5[C@@H](N(C)C)CC6)C(C)C)cc3)c2)c1 [Compound 20, (1S,9S)-1-(dimethylamino)-9-ethyl-5-fluoro-4-methyl-10,13-dioxo-2,3,9,10,13,15-hexahydro-1H,12H-benzo[de]pyrano[3′,4′:6,7]indolizino[1,2-b]quinolin-9-yl N-(14-{4-[({(1R)-2-carboxy-1-[3-({3-[(propylcarbamoyl)amino]benzene-1-sulfonyl}amino)phenyl]ethyl}carbamoyl)amino]anilino}-14-oxo-4,7,10-trioxa-13-azatetradecanan-1-oyl)-L-alpha-aspartyl-L-prolyl-L-valinate]
786-O [5]; [11]
  AC50: 1.1 to 10 nM
786-O [5]; [12]
  AC50: > 100 nM
HT29 [6]; [13]
  AC50: 11 to 100 nM
HT29 [6]; [14]
  AC50: > 100 nM
NCI H292 [7]; [15]
  AC50: 1.1 to 10 nM
NCI H292 [7]; [16]
  AC50: > 100 nM
SUM149 [8]; [17]
  AC50: 1.1 to 10 nM
SUM149 [8]; [18]
  AC50: > 100 nM

## CCCNC(=O)Nc1cccc(S(=O)(=O)Nc2cccc([C@@H](CC(=O)O)NC(=O)Nc3ccc(NC(=O)NCCOCCOCCOCCC(=O)N[C@@H](CC(=O)O)C(=O)N4CCC[C@H]4C(=O)N[C@H](C(=O)O[C@]4(CC)C(=O)OCc5c4cc4n(c5=O)Cc5c-4nc4cc(F)c(C)c6c4c5[C@@H](N(CC)CC)CC6)C(C)C)cc3)c2)c1 [Compound 19, (1S,9S)-1-(diethylamino)-9-ethyl-5-fluoro-4-methyl-10,13-dioxo-2,3,9,10,13,15-hexahydro-1H,12H-benzo[de]pyrano[3′,4′:6,7]indolizino[1,2-b]quinolin-9-yl N-(14-{4-[({(1R)-2-carboxy-1-[3-({3-[(propylcarbamoyl)amino]benzene-1-sulfonyl}amino)phenyl]ethyl}carbamoyl)amino]anilino}-14-oxo-4,7,10-trioxa-13-azatetradecanan-1-oyl)-L-alpha-aspartyl-L-prolyl-L-valinate]
786-O [5]; [11]
  AC50: 1.1 to 10 nM
786-O [5]; [12]
  AC50: > 100 nM
HT29 [6]; [13]
  AC50: 11 to 100 nM
HT29 [6]; [14]
  AC50: > 100 nM
NCI H292 [7]; [15]
  AC50: 11 to 100 nM
NCI H292 [7]; [16]
  AC50: > 100 nM
SUM149 [8]; [17]
  AC50: 1.1 to 10 nM
SUM149 [8]; [18]
  AC50: > 100 nM

## CCCNC(=O)Nc1cccc(S(=O)(=O)Nc2cccc([C@@H](CC(=O)O)NC(=O)Nc3ccc(NC(=O)NCCOCCOCCOCCC(=O)N[C@@H](CC(=O)O)C(=O)N4CCC[C@H]4C(=O)N[C@H](C(=O)O[C@]4(CC)C(=O)OCc5c4cc4n(c5=O)Cc5c-4nc4cc(F)c(C)c6c4c5[C@@H](N)CC6)C(C)C)cc3)c2)c1 [Compound 4b, disodium (1S,9S)-1-amino-9-ethyl-5-fluoro-4-methyl-10,13-dioxo-2,3,9,10,13,15-hexahydro-1H,12H-benzo[de]pyrano[3′,4′:6,7]indolizino[1,2-b]quinolin-9-yl 1-{(2S)-2-(carboxylatomethyl)-17-[4-({[(1R)-2-carboxylato-1-{3-[({3-[(propylcarbamoyl)amino]phenyl}sulfonyl)amino]phenyl}ethyl]carbamoyl}amino)anilino]-4,17-dioxo-7,10,13-trioxa-3,16-diazaheptadecan-1-oyl}-L-prolyl-L-valinate]
786-O [1]; 786-O cells, with 10 nM elastase, 72 h, MTT, read-out: 786-O IC50 w elastase
  IC50: 0.01 to 0.1 nM
786-O [1]; 786-O cells, without elastase, 72 h, MTT, read-out: 786-O IC50 w/o
  IC50: 10 to 100 nM
HT29 [2]; HT29 cells, with 10 nM elastase, 72 h, MTT, read-out: HT29 IC50 w elastase
  IC50: 0.1 to 1 nM
HT29 [2]; HT29 cells, without elastase, 72 h, MTT, read-out: HT29 IC50 w/o
  IC50: 10 to 100 nM
NCI H292 [3]; NCI H292 cells, with 10 nM elastase, 72 h, MTT, read-out: NCI H292 IC 50 w elastase
  IC50: 0.01 to 0.1 nM
NCI H292 [3]; NCI H292 cells, without elastase, 72 h, MTT, read-out: NCI H292 IC 50 w/o
  IC50: 1.1 to 10 nM
SUM149 [4]; [9]
  IC50: < 0.01 nM
SUM149 [4]; [10]
  IC50: 1.1 to 10 nM
786-O [5]; [11]
  AC50: 1.1 to 10 nM
786-O [5]; [12]
  AC50: > 100 nM
HT29 [6]; [13]
  AC50: 1.1 to 10 nM
HT29 [6]; [14]
  AC50: > 100 nM
NCI H292 [7]; [15]
  AC50: 1.1 to 10 nM
NCI H292 [7]; [16]
  AC50: > 100 nM
SUM149 [8]; [17]
  AC50: < 1 nM
SUM149 [8]; [18]
  AC50: 11 to 100 nM

## CCCNC(=O)Nc1cccc(S(=O)(=O)Nc2cccc([C@@H](CC(=O)O)NC(=O)Nc3ccc(NC(=O)NCCOCCOCCOCCC(=O)N[C@@H](CC(=O)O)C(=O)N4CCC[C@H]4C(=O)N[C@H](C(=O)O[C@]4(CC)C(=O)OCc5c4cc4n(c5=O)Cc5cc6cc7c(cc6nc5-4)OCO7)C(C)C)cc3)c2)c1 [Compound 5, (7S)-7-ethyl-8,11-dioxo-7,8,11,13-tetrahydro-2H,10H-[1,3]dioxolo[4,5-g]pyrano [3′,4′:6,7]indolizino[1,2-b]quinolin-7-yl N-(14-{4-[({(1R)-2-carboxy-1-[3-({3-[(propylcarbamoyl)amino]benzene-1-sulfonyl}amino)phenyl]ethyl}carbamoyl)amino]anilino}-14-oxo-4,7,10-trioxa-13-azatetradecanan-1-oyl)-L-alpha-aspartyl-L-prolyl-L-valinate-bis sodium salt]
786-O [1]; read-out: 786-O IC50 w elastase
  IC50: < 0.01 nM
786-O [1]; read-out: 786-O IC50 w/o
  IC50: 1.1 to 10 nM
HT29 [2]; read-out: HT29 IC50 w elastase
  IC50: < 0.01 nM
HT29 [2]; read-out: HT29 IC50 w/o
  IC50: 10 to 100 nM
NCI H292 [3]; read-out: NCI H292 IC 50 w elastase
  IC50: < 0.01 nM
NCI H292 [3]; read-out: NCI H292 IC 50 w/o
  IC50: 1.1 to 10 nM
SUM149 [4]; read-out: SUM149 IC50 w elastase
  IC50: < 0.01 nM
SUM149 [4]; read-out: SUM149 IC50 w/o
  IC50: 1.1 to 10 nM
786-O [5]; read-out: 786-O AC50 +elastase
  AC50: 1.1 to 10 nM
786-O [5]; read-out: 786-O AC50 −elastase
  AC50: > 100 nM
HT29 [6]; read-out: HT29 AC50 +elastase
  AC50: 1.1 to 10 nM
HT29 [6]; read-out: HT29 AC50 −elastase
  AC50: > 100 nM
NCI H292 [7]; read-out: NCI H292 AC50 +elastase
  AC50: < 1 nM
NCI H292 [7]; read-out: NCI H292 AC50 −elastase
  AC50: > 100 nM
SUM149 [8]; read-out: SUM149 AC50 +elastase
  AC50: < 1 nM
SUM149 [8]; read-out: SUM149 AC50 −elastase
  AC50: 11 to 100 nM
